Source: ChEMBL document CHEMBL1743201, “Casarett and Doull's Toxicology The Basic Science of Poisons, 7th edition” (2008)

What was measured:
Assay type in all cases: ADME
[1] = target: Cytochrome P450 2D6 (Homo sapiens, UniProt P10635); experiment: Clinically relevant inhibitors of human liver microsomal P450 enzymes, isoform CYP2D6; settings: microsomes
[2] = target: T1, Cytochrome P450 1A2 (Homo sapiens, UniProt P05177); experiment: Clinically relevant inhibitors of human liver microsomal P450 enzymes, isoform CYP1A2; settings: microsomes
T1 sequence (P05177 whole entry): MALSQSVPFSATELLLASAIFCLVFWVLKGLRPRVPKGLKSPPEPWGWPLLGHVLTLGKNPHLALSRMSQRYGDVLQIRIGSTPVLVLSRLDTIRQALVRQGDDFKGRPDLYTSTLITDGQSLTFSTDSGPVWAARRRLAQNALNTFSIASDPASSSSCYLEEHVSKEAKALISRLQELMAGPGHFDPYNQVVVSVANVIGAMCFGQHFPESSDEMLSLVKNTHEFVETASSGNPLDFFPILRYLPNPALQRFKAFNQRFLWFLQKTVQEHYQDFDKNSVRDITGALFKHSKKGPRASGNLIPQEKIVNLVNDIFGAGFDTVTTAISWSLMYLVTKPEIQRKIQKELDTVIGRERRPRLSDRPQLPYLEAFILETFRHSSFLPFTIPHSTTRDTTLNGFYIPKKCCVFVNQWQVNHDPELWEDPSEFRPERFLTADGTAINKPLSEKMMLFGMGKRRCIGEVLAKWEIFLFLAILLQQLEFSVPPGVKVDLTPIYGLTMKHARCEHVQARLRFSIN

[3] = target: T2, Glutathione S-transferase theta-1 (Homo sapiens, UniProt P30711); experiment: Substrates for human cytosolic glutathione transferase GSTT1
T2 sequence (P30711 whole entry): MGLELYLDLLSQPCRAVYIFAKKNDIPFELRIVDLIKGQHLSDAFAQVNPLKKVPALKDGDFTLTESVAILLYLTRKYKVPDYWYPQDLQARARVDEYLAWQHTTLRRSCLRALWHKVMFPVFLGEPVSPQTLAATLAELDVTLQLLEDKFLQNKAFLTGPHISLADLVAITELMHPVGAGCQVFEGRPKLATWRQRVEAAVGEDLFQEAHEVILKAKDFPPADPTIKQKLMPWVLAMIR

[4] = target: T3, UDP-glucuronosyltransferase 1A6 (Homo sapiens, UniProt P19224); experiment: Substrate of human UDP-glucuronosyltransferase UGT1A6
T3 sequence (P19224 whole entry): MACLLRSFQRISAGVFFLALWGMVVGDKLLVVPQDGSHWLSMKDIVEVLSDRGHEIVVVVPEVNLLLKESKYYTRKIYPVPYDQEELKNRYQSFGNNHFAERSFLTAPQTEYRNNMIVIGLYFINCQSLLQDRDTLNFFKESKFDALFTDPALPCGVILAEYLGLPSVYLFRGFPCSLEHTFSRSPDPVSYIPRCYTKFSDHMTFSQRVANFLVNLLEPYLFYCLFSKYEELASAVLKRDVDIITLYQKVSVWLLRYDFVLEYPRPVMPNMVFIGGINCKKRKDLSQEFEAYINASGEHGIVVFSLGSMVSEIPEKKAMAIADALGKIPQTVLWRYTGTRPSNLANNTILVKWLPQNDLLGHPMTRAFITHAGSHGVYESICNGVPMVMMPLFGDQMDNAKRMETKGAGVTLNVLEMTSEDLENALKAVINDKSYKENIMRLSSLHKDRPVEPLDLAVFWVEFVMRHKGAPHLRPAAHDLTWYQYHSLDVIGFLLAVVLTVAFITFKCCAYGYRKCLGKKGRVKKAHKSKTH

[5] = target: T4, UDP-glucuronosyltransferase 2B7 (Homo sapiens, UniProt P16662); experiment: Substrate of human UDP-glucuronosyltransferase UGT2B7
T4 sequence (P16662 whole entry): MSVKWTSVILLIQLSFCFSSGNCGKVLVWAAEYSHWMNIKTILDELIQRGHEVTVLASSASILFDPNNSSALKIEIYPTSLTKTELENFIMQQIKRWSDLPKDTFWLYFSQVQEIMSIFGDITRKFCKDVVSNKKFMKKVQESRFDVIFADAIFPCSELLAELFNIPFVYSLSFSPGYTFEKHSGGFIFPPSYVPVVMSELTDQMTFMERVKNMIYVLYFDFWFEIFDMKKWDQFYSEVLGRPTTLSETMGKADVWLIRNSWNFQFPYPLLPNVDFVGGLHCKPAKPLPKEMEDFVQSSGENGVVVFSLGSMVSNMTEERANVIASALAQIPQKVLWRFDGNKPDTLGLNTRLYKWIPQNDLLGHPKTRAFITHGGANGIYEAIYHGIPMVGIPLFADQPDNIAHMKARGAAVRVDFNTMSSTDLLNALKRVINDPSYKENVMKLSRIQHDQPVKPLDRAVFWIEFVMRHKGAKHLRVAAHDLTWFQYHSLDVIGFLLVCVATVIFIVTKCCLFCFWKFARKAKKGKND

[6] = target: T5, UDP-glucuronosyltransferase 2B15 (Homo sapiens, UniProt P54855); experiment: Substrate of human UDP-glucuronosyltransferase UGT2B15
T5 sequence (P54855 whole entry): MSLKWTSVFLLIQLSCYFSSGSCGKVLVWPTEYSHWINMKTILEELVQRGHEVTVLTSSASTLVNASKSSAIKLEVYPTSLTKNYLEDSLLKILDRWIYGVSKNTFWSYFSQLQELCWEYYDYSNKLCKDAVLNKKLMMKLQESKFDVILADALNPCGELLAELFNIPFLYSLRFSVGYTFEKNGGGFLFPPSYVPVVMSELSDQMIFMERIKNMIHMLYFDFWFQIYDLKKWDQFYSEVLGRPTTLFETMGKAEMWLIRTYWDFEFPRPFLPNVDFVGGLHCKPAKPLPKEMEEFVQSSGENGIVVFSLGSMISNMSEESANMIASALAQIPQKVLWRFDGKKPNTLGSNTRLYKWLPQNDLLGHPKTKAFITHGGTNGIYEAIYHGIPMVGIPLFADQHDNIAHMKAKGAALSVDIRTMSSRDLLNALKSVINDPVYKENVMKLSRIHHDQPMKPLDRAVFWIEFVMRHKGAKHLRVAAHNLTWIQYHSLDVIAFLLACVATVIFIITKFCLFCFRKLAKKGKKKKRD

[7] = target: T6, UDP-glucuronosyltransferase 1A9 (Homo sapiens, UniProt O60656); experiment: Substrate of human UDP-glucuronosyltransferase UGT1A9
T6 sequence (O60656 whole entry): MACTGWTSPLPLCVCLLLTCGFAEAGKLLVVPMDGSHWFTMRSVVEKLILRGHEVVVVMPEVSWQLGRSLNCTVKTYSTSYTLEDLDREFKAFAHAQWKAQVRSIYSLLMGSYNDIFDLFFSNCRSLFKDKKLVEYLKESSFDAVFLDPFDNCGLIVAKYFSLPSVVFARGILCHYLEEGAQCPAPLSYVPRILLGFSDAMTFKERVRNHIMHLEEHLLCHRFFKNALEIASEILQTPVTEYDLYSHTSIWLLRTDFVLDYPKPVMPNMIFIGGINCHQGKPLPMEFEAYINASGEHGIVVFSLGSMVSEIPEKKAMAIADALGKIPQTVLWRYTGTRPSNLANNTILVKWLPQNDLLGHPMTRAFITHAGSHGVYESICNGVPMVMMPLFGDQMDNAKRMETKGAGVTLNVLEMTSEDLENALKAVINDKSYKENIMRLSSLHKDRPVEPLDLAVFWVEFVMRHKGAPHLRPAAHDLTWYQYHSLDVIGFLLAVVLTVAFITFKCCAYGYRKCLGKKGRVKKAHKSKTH

[8] = target: T7, Cytochrome P450 2C9 (Homo sapiens, UniProt P11712); experiment: Clinically relevant substrates of human liver microsomal P450 enzymes, isoform CYP2C9; settings: microsomes
T7 sequence (P11712 whole entry, canonical isoform): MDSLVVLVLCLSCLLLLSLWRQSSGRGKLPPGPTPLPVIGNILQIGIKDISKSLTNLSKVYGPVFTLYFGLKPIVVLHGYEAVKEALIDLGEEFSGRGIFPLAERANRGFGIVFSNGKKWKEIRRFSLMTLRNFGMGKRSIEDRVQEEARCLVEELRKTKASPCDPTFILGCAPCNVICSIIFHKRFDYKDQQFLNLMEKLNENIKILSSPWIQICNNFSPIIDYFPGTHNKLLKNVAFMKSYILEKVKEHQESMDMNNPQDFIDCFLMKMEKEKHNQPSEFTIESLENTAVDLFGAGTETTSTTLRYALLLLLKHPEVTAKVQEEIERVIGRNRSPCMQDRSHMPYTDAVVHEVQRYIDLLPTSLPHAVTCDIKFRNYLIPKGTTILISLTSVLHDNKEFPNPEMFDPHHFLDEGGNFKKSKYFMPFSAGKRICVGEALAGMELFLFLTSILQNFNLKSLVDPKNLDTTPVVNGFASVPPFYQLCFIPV

[9] = target: T8, Glutathione S-transferase Mu 2 (Homo sapiens, UniProt P28161); experiment: Substrates for human cytosolic glutathione transferase GSTM2
T8 sequence (P28161 whole entry): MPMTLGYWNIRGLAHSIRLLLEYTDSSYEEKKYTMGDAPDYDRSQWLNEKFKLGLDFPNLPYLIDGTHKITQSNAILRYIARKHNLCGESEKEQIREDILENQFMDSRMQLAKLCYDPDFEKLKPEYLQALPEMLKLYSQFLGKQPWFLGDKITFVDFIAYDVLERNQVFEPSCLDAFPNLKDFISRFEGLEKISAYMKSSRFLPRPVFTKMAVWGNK

[10] = target: T9, Glutathione S-transferase Mu 1 (Homo sapiens, UniProt P09488); experiment: Substrates for human cytosolic glutathione transferase GSTM1
T9 sequence (P09488 whole entry): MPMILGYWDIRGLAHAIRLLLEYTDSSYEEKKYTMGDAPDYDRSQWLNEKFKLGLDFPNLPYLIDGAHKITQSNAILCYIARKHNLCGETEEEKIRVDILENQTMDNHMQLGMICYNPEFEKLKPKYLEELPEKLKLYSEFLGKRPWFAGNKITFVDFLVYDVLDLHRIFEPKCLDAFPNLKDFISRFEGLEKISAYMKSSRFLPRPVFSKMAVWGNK

[11] = target: Cytochrome P450 2C19 (Homo sapiens, UniProt P33261); experiment: Clinically relevant substrates of human liver microsomal P450 enzymes, isoform CYP2C19; settings: microsomes
Cytochrome P450 2C19, sequence (P33261 whole entry, canonical isoform): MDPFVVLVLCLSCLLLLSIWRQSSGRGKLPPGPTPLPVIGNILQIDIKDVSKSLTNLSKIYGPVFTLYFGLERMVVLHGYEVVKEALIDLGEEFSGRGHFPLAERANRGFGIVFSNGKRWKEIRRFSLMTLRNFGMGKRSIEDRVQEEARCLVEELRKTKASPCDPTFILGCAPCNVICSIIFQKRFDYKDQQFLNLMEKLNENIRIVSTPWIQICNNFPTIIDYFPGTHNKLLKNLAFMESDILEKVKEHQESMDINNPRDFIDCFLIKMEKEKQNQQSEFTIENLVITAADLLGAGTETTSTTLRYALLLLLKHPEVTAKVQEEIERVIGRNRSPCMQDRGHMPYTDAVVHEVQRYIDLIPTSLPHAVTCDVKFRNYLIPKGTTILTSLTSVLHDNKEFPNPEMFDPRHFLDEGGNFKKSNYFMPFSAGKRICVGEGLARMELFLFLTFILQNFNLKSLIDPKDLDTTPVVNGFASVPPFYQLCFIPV

[12] = target: T10, Glutathione S-transferase A1 (Homo sapiens, UniProt P08263); experiment: Substrates for human cytosolic glutathione transferase GSTA1
T10 sequence (P08263 whole entry): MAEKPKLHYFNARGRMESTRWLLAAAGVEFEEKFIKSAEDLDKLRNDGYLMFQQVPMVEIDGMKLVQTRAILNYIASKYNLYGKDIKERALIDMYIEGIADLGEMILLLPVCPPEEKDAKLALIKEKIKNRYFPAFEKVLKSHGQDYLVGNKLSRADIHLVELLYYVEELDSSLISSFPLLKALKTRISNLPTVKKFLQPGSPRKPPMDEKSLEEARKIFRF

[13] = target: T7, Cytochrome P450 2C9; experiment: Clinically relevant inhibitors of human liver microsomal P450 enzymes, isoform CYP2C9; settings: microsomes
[14] = target: Glutathione S-transferase P (Homo sapiens, UniProt P09211); experiment: Substrates for human cytosolic glutathione transferase GSTP1
Glutathione S-transferase P, sequence (P09211 whole entry): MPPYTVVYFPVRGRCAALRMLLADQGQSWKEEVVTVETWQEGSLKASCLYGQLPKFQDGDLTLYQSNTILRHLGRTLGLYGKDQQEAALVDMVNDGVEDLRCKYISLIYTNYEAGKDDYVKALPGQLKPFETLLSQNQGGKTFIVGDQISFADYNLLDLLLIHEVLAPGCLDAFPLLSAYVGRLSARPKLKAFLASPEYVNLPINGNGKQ

[15] = target: T11, UDP-glucuronosyltransferase 1A8 (Homo sapiens, UniProt Q9HAW9); experiment: Substrate of human UDP-glucuronosyltransferase UGT1A8
T11 sequence (Q9HAW9 whole entry): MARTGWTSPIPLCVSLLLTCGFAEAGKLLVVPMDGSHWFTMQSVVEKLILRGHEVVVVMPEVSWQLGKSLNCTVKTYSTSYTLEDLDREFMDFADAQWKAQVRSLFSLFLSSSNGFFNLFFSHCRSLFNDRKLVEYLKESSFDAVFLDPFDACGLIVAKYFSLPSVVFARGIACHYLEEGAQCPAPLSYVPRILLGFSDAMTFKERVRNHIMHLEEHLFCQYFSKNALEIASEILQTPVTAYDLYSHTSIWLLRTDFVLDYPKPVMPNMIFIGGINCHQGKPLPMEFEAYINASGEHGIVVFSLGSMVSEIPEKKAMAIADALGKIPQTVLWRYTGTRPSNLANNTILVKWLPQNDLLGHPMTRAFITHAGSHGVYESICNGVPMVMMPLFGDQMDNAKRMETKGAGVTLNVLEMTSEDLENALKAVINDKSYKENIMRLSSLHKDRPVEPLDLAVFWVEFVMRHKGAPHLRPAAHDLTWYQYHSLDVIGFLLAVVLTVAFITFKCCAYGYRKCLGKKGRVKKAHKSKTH

Cytochrome P450 2D6, sequence (P10635 whole entry, canonical isoform): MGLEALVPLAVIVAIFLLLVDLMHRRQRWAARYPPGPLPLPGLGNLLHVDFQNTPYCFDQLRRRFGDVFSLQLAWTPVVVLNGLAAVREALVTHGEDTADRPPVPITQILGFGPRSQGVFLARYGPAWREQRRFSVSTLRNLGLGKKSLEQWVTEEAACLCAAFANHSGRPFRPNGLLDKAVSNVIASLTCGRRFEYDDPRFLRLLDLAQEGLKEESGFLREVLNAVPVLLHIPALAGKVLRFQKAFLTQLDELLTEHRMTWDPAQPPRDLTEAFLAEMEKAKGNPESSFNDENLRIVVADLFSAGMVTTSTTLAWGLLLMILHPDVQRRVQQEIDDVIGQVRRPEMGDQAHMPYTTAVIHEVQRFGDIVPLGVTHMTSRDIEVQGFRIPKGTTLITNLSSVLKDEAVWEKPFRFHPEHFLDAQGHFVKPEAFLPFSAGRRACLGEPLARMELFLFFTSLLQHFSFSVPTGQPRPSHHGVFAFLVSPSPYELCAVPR

Fc1ccc([C@@H]2CCNC[C@H]2COc2ccc3c(c2)OCO3)cc1 [PAROXETINE]
Activity [1]: Inhibitor

Cc1cccc(C)c1OCC(C)N (centres undefined) [MEXILETINE]
Activity [2]: Inhibitor

C=CC1CO1 (centres undefined) [BUTADIENE EPOXIDE]
Activity [3]: Substrate

O=C(O)Cc1ccccc1Nc1c(Cl)cccc1Cl [DICLOFENAC]
Activity [4]: Substrate | Activity [5]: Substrate | Activity [6]: Substrate | Activity [7]: Substrate | Activity [8]: Substrate

O=[N+]([O-])c1ccc(Cl)c(Cl)c1
Activity [9]: Substrate

c1ccc([C@H]2O[C@@H]2c2ccccc2)cc1 (relative stereo)
Activity [10]: Substrate

Cc1ccc(C(=O)c2cc(O)c(O)c([N+](=O)[O-])c2)cc1 [TOLCAPONE]
Activity [6]: Substrate

c1ccc(C2CO2)cc1 (centres undefined)
Activity [10]: Substrate

COc1ccnc(C[S+]([O-])c2nc3ccc(OC(F)F)cc3[nH]2)c1OC (centres undefined) [PANTOPRAZOLE]
Activity [11]: Substrate

CC(C(=O)O)c1ccc(-c2ccccc2)c(F)c1 (centres undefined) [FLURBIPROFEN]
Activity [8]: Substrate

CCn1cc(C(=O)O)c(=O)c2cc(F)c(N3CCNCC3)cc21 [NORFLOXACIN]
Activity [2]: Inhibitor

O=C(NCCN1CCOCC1)c1ccc(Cl)cc1 [MOCLOBEMIDE]
Activity [11]: Substrate

OC1c2c(ccc3cc4c(ccc5ccccc54)cc23)C2OC2C1O (centres undefined) [DIBENZ[A,H]ANTHRACENE DIOL EPOXIDE]
Activity [10]: Substrate | Activity [12]: Substrate

CC(c1cc2ccccc2s1)N(O)C(N)=O (centres undefined) [ZILEUTON]
Activity [2]: Inhibitor

COCCCC/C(=N\OCCN)c1ccc(C(F)(F)F)cc1 [FLUVOXAMINE]
Activity [2]: Inhibitor | Activity [13]: Inhibitor

C1CO1 [OXIRANE]
Activity [3]: Substrate

OC1c2ccc3c(ccc4ccccc43)c2C2OC2C1O (centres undefined)
Activity [10]: Substrate | Activity [14]: Substrate

ClCCl [METHYLENE CHLORIDE]
Activity [3]: Substrate

O=[N+]([O-])c1ccc(OCC2CO2)cc1 (centres undefined)
Activity [3]: Substrate

NC(CC1=CC(=O)C(=O)C=C1)C(=O)O (centres undefined)
Activity [9]: Substrate

OC1c2cc3ccc4cccc5ccc(c2C2OC2C1O)c3c45 (centres undefined) [BENZO[A]PYRENE DIOL EPOXIDE]
Activity [10]: Substrate | Activity [12]: Substrate | Activity [14]: Substrate

CC(=O)C[C@@H](c1ccccc1)c1c(O)c2ccccc2oc1=O
Activity [8]: Substrate

O=C1C=C2CCNC2=CC1=O [AMINOCHROME]
Activity [9]: Substrate

CCC(=C(c1ccc(O)cc1)c1ccc(OCCN(C)C)cc1)c1ccccc1
Activity [6]: Substrate

CCN(CC)C(=O)/C(C#N)=C/c1cc(O)c(O)c([N+](=O)[O-])c1 [ENTACAPONE]
Activity [15]: Substrate | Activity [6]: Substrate | Activity [7]: Substrate

CNCCC(Oc1ccc(C(F)(F)F)cc1)c1ccccc1 (centres undefined) [FLUOXETINE]
Activity [11]: Substrate | Activity [13]: Inhibitor | Activity [8]: Substrate
